Where two headings read alike, the source gives them in different places.

In general, Ki refers to a dissociation constant, usually derived from enzyme kinetics or from competition with a known ligand.

The target of assay [1] is T1, hNET (Homo sapiens, UniProt P23975). Particulars: read-out: hNET Receptor Binding Ki ± SD, N-Methyl-[3H]-nisoxetine, cited from earlier work.
Another assay addresses hDAT (Homo sapiens, UniProt Q01959). The settings on record: read-out: hDAT Receptor Binding Ki ± SD, [3H]-WIN-35,428, cited from earlier work.
The target in a further assay is hSERT (Homo sapiens, UniProt P31645). Particulars: read-out: hSERT Receptor Binding Ki ± SD, [3H]-Citalopram, cited from earlier work.
For a further assay, the target named is dopaminergic D2 receptor (Homo sapiens, UniProt P14416). Particulars: read-out: D2 Receptor Binding Ki ± SD, [3H]-Spiperone, cited from earlier work.
The target in another assay is T2, adrenergic α1A receptor (Homo sapiens, UniProt P35348).
T2 sequence (P35348 1-466): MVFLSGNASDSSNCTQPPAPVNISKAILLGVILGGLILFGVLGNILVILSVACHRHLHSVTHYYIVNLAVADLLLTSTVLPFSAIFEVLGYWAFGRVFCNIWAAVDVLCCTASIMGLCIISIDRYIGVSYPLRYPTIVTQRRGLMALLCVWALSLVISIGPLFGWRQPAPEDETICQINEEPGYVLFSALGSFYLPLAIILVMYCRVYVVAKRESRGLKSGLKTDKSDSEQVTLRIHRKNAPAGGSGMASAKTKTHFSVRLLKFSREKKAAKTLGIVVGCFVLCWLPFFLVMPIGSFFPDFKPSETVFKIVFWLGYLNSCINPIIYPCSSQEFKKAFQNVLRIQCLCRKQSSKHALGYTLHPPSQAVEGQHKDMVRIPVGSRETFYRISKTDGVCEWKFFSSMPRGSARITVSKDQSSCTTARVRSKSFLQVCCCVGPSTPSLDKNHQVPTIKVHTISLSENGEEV
Particulars: read-out: α1A Receptor Binding Ki ± SD, [3H]-Prazosin, cited from earlier work.

The target in a further assay is T3, adrenergic α2A receptor (Homo sapiens, UniProt P08913).
T3 sequence (P08913 1-465): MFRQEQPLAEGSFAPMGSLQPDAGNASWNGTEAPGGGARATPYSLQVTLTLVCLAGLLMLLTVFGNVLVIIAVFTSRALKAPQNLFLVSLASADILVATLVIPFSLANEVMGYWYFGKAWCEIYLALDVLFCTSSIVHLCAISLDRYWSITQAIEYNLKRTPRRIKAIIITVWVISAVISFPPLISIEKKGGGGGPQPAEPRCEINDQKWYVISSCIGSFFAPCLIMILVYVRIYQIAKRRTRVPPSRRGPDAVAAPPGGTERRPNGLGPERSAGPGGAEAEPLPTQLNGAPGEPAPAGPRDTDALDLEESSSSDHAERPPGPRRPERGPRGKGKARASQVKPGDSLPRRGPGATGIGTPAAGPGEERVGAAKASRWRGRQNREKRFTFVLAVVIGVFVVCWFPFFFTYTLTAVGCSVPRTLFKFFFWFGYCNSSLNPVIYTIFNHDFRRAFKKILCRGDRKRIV
The settings on record: [3H]-Rauwolscine, cited from earlier work; for Ki: read-out: α2A Receptor Binding Ki ± SD.

Another assay addresses Rat TAAR1. Particulars: [3H]-RO5166017, cited from earlier work; for Ki: read-out: Rat TAAR1 Receptor Binding Ki ± SD.
The next assay concerns the target Mouse TAAR1. Particulars: [3H]-RO5166017, read-out: Mouse TAAR1 Receptor Binding Ki ± SD, cited from earlier work.
Assay [2] deals with T1, hNET. The experiment in a line: Transporter-mediated monoamine efflux, [3H]-NE preloaded HEK293 cells. The format is cell-based. The settings on record: 100 μM of drug, 45 min, HEK293 hNET preloaded with [3H]-NE; data for some pyrovalerones adapted from [13]. Set-up: expressed in transfected cells; host or cells: HEK293. As to the method: Monoamine efflux was assessed using human embryonic kidney 293 (HEK293) cells (Invitrogen, Zug, Switzerland) stably transfected with the human norepinephrine (hNET), dopamine (hDAT), or serotonin (hSERT) uptake transporters. In summary, the cells were seeded in poly-D-lysine coated XF24 cell culture microplates (Seahorse Biosciences, North Billerica, MA, USA) and cultured overnight at a concentration of 100,000 cells per well.
The cells were then exposed to Krebs–HEPES release buffer (85 μL/well) comprised of 130 mM NaCl, 1.3 mM KCl, 2.2 mM CaCl2, 1.2 mM MgSO4, 1.2 mM KH2PO4, 10 mM HEPES, and 10 mM D-glucose at a pH of 7.5, which also contained 10 nM radiolabelled neurotransmitter ([^3H]-5-HT for SERT, [^3H]-DA for DAT or [^3H]-NE for NET), 1 μM unlabelled neurotransmitter (DA or NE, only), 10 μM pargyline, and 0.2 mg/mL of ascorbic acid. This enabled the loading of the cells with their respective neurotransmitters via the uptake transporters. Afterwards, the release buffer was replaced by fresh buffer to wash the cells twice and the cells were then incubated for 15 min (DAT and SERT) or 45 min (NET) to 100 μM of test drugs dissolved in 1 mL of Krebs–HEPES buffer while shaking at 300 rpm and 37 °C. Termination of the release reaction occurred by removing the buffer from the cells and washing them with ice-cold buffer. Next, 50 μL of lysis buffer was added to the cells for 1 h in order to lyse the cells. Thereafter, 40 μL of the lysed cell mixture was transferred into scintillation vials (Perkin–Elmer, Schwerzenbach, Switzerland) containing 3 mL of scintillation fluid (Ultimagold, Perkin–Elmer, Schwerzenbach, Switzerland) and measured using liquid scintillation (as previously described in Section 2.2).
To quantify the “pseudo efflux” caused by the non-transporter mediated monoamine release and successive reuptake inhibition, each monoamine efflux experiment included a control where the cells were exposed to each respective transporter blocker (nisoxetine for NET, mazindol for DAT, and citalopram for SERT). The radioactivity inside the cells without any drug was set as 100%. The nonspecific release was subtracted from the total observed release at 100 μM of each examined drug to calculate the specific transporter mediated release. One single concentration of the test drugs was used (100 μM) and release exposure durations were set based on previously evaluated kinetics of the release-over-time curves.
An ANOVA followed by a Holm–Sidak test was conducted to compare each drug’s specific transporter-mediated efflux based on at least three independent experiments to the control condition.

Setting [3] is: ref Luethi, Kolaczynska et al. (2019).

Chain of hDAT (Q01959 whole entry): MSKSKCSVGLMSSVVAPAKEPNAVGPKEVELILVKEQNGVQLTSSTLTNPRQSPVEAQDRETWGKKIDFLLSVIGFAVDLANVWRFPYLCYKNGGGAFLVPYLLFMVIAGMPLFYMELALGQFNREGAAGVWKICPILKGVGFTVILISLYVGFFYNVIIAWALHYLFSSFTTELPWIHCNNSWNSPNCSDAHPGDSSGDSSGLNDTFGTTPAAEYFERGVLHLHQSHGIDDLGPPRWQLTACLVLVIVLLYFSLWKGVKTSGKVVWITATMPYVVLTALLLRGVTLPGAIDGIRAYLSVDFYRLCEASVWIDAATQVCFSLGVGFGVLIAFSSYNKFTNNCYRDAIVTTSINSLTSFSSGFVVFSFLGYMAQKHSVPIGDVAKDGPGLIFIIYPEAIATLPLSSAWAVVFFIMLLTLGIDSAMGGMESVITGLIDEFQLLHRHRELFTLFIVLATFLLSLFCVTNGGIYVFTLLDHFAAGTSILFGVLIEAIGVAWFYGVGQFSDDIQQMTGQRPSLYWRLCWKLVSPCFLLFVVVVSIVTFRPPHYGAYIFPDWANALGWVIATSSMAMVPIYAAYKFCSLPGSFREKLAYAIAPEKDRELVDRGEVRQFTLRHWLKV
T1 sequence (P23975 whole entry): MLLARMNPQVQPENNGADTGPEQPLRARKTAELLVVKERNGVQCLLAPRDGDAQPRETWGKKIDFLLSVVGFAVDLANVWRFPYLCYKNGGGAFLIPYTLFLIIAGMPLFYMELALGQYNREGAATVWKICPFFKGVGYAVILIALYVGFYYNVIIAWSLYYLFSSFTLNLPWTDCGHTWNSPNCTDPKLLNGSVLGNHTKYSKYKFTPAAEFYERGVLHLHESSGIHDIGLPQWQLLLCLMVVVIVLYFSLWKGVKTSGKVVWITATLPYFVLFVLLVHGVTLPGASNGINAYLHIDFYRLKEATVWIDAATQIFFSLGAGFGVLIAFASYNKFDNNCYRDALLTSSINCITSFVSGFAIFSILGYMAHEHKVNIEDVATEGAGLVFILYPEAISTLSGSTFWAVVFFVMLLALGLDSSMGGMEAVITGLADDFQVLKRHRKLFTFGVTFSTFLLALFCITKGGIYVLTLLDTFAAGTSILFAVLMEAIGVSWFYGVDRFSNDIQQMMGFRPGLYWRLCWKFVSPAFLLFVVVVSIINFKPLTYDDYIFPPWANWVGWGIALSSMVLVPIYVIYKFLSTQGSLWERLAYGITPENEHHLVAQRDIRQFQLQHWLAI
Chain of hSERT (P31645 whole entry): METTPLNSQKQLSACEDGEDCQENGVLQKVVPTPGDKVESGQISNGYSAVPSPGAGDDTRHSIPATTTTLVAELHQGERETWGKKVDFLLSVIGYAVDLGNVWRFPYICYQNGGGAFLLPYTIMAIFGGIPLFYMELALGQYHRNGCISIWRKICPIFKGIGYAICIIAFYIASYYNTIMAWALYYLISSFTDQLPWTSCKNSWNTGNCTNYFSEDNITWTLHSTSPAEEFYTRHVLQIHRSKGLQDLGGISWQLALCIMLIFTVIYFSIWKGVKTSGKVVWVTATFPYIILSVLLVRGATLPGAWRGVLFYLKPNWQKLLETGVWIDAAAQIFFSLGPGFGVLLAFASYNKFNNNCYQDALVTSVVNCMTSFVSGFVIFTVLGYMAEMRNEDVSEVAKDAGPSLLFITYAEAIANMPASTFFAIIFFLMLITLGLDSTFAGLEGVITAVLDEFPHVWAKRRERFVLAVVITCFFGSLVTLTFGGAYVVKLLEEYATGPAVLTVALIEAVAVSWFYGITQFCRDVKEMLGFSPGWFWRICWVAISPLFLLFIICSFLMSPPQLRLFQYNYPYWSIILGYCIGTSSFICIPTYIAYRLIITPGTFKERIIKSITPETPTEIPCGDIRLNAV
Chain of dopaminergic D2 receptor (P14416 whole entry): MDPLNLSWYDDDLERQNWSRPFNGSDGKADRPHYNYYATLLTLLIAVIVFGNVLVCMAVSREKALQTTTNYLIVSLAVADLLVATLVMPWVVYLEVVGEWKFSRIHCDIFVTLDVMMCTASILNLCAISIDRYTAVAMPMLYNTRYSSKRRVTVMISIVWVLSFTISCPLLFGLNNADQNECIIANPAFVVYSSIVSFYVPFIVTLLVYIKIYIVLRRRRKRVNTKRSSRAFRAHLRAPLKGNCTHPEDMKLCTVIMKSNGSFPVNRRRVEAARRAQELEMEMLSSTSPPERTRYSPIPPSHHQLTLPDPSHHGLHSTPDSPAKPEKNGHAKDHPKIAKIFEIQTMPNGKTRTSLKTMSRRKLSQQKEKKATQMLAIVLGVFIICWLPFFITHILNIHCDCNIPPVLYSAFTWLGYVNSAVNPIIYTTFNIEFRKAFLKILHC

Turning to `CCC(C(=O)c1ccc2c(c1)OCO2)N1CCCC1` (stereo not drawn) [MDPBP, 3,4-methylenedioxy-α-pyrrolidinobutiophenone], the Ki was 1.1 ± 0.1 µM at hNET [1] (ref Rickli et al. (2015)); 0.02 ± 0.002 µM on hDAT (ref Rickli et al. (2015)); 4.1 ± 1.2 µM on hSERT (ref Rickli et al. (2015)); above 20 µM on dopaminergic D2 receptor (ref Rickli et al. (2015)); above 4.9 µM at adrenergic α1A receptor (ref Rickli et al. (2015)); 9.4 ± 1.6 µM on adrenergic α2A receptor (ref Rickli et al. (2015)). The Ki on Rat TAAR1 (ref Rickli et al. (2015)) and on Mouse TAAR1 (ref Rickli et al. (2015)) was above 20 µM each time. In addition, the “α2A Receptor Binding Ki ± SD” value at adrenergic α2A receptor (ref Rickli et al. (2015)) is listed as “bound the receptor in the low micromolar range”.
In the case of `CCCC(C(=O)c1ccccc1)N1CCCC1` (stereo not drawn) [α-PVP, α-pyrrolidinopentiophenone], the Ki on hNET [1] (ref Rickli et al. (2015)) is 0.06 ± 0.02 µM; on hDAT (ref Rickli et al. (2015)), 0.007 ± 0.002 µM; on hSERT (ref Rickli et al. (2015)), above 30 µM; on dopaminergic D2 receptor (ref Rickli et al. (2015)), above 10 µM; on adrenergic α1A receptor (ref Rickli et al. (2015)), above 15 µM; on adrenergic α2A receptor (ref Rickli et al. (2015)), above 20 µM. For the same compound, the Ki at Rat TAAR1 (ref Rickli et al. (2015)) is 16 ± 6.4 µM; on Mouse TAAR1 (ref Rickli et al. (2015)), above 20 µM. Besides, on Rat TAAR1 (ref Rickli et al. (2015)), the “Rat TAAR1 Receptor Binding Ki ± SD” value is “bound the rat TAAR1”. Besides, the “Transporter-mediated monoamine efflux (NE) vs nisoxetine” value at hNET [2] was “did not induce any monoamine efflux”.
Take `CNC(C)Cc1ccc2c(c1)OCO2` (stereo not shown) [MDMA, 3,4-methylenedioxymethamphetamine, reference compound]: the Ki at hNET [1] (setting [3]) is above 8.7 µM; at hDAT (setting [3]), above 8.5 µM; on hSERT (setting [3]), above 7.5 µM; at dopaminergic D2 receptor (setting [3]), above 13 µM; at adrenergic α1A receptor (setting [3]), 6.9 ± 1.2 µM; on adrenergic α2A receptor (setting [3]), 4.6 ± 1.1 µM. In addition, the results for the Ki at Rat TAAR1 (setting [3]) and at Mouse TAAR1 (setting [3]) were 0.25 ± 0.01 µM and 3.1 ± 0.7 µM, respectively. Moreover, at hNET [2], the “Transporter-mediated monoamine efflux (NE) vs nisoxetine” value was “causes significant release at the transporters”.
Turning to `CCCC(C(=O)c1ccc(C)cc1)N1CCCC1` (stereo not shown) [Pyrovalerone, pyrovalerone], the Ki is 0.06 ± 0.01 µM at hNET [1] (ref Simmler et al. (2013)); 0.03 ± 0.01 µM on hDAT (ref Simmler et al. (2013)); 5 ± 0.3 µM on hSERT (ref Simmler et al. (2013)); above 30 µM on dopaminergic D2 receptor (ref Simmler et al. (2013)); above 6 µM at adrenergic α1A receptor (ref Simmler et al. (2013)); above 20 µM at adrenergic α2A receptor (ref Simmler et al. (2013)). For the same compound, the values for the Ki at Rat TAAR1 (ref Simmler et al. (2013)) and on Mouse TAAR1 (ref Simmler et al. (2013)) were above 12.5 µM and above 10 µM, respectively.
Regarding `CCCC(C(=O)c1ccc2c(c1)OCO2)N1CCCC1` (stereo not shown) [MDPV, 3,4-methylenedioxypyrovalerone], the Ki is 0.08 ± 0.02 µM at hNET [1] (ref Simmler et al. (2013)); 0.01 ± 0.002 µM at hDAT (ref Simmler et al. (2013)); 2.9 ± 0.1 µM at hSERT (ref Simmler et al. (2013)); above 30 µM at dopaminergic D2 receptor (ref Simmler et al. (2013)); above 6 µM on adrenergic α1A receptor (ref Simmler et al. (2013)); above 20 µM on adrenergic α2A receptor (ref Simmler et al. (2013)). In addition, the Ki at Rat TAAR1 (ref Simmler et al. (2013)) was 7.2 ± 1.1 µM; at Mouse TAAR1 (ref Simmler et al. (2013)) it was above 10 µM. The “Rat TAAR1 Receptor Binding Ki ± SD” value at Rat TAAR1 (ref Simmler et al. (2013)) was “bound the rat TAAR1”.
As to `CC(C(=O)c1ccc2c(c1)OCO2)N1CCCC1` (stereo not drawn) [MDPPP, 3,4-methylenedioxy-α-pyrrolidinopropiophenone], the Ki was 3.5 ± 1 µM at hNET [1] (ref Rickli et al. (2015)); 0.18 ± 0.05 µM at hDAT (ref Rickli et al. (2015)); 12 ± 1 µM on hSERT (ref Rickli et al. (2015)); above 10 µM on dopaminergic D2 receptor (ref Rickli et al. (2015)); above 15 µM at adrenergic α1A receptor (ref Rickli et al. (2015)); 14 ± 0.9 µM on adrenergic α2A receptor (ref Rickli et al. (2015)). Also, the Ki at Rat TAAR1 (ref Rickli et al. (2015)) is 16 ± 6.7 µM; at Mouse TAAR1 (ref Rickli et al. (2015)), above 20 µM. Besides, the “α2A Receptor Binding Ki ± SD” value at adrenergic α2A receptor (ref Rickli et al. (2015)) is on record as “bound the receptor in the low micromolar range”. Further, on Rat TAAR1 (ref Rickli et al. (2015)), the “Rat TAAR1 Receptor Binding Ki ± SD” value is listed as “bound the rat TAAR1”.

The values are drawn from article PMC8348686, “The Pharmacological Profile of Second Generation Pyrovalerone Cathinones and Related Cathinone Derivative” (International Journal of Molecular Sciences, 2021).
